≈ marks a conversion by molar mass, not a printed value. Like-named read-outs stand apart in the source and are kept apart here.
Key:
[1] = tested on: Pseudomonas aeruginosa X239; assay: standard agar-dilution MIC assay; assay type: cell-based; conditions: Pseudomonas aeruginosa, X239; agar-dilution; read-out: MIC
Procedure: (§1) The MIC's in Table III were determined by standard agar-dilution assays. The MIC's in Table IV were obtained using conventional brothdilution microtiter tests.

[2] = tested on: Staphylococcus aureus X400; assay: standard agar-dilution MIC assay; assay type: cell-based; conditions: Staphylococcus aureus, X400
Procedure: as §1

[3] = tested on: Haemophilus influenzae 76; assay: standard agar-dilution MIC assay; assay type: cell-based; conditions: Haemophilus influenzae, 76; agar-dilution; Ampicillin-resistant strain; read-out: MIC
Procedure: as §1

[4] = tested on: Streptococcus pyogenes C203; assay: standard agar-dilution MIC assay; assay type: cell-based; conditions: Streptococcus pyogenes, C203
Procedure: as §1

Escherichia coli EC14 = assay: standard agar-dilution MIC assay; assay type: cell-based; conditions: agar-dilution, read-out: MIC
Procedure: as §1

[5] = tested on: Staphylococcus epidermidis EP12; assay: standard agar-dilution MIC assay; assay type: cell-based
Procedure: as §1

[6] = tested on: Streptococcus Group D X66; assay: standard agar-dilution MIC assay; assay type: cell-based; conditions: read-out: MIC
Procedure: as §1

[7] = tested on: Staphylococcus epidermidis EPI1; assay: standard agar-dilution MIC assay; assay type: cell-based; conditions: Staphylococcus epidermidis, EPI1
Procedure: as §1

[8] = tested on: Staphylococcus aureus X1.1; assay: standard agar-dilution MIC assay; assay type: cell-based; conditions: Staphylococcus aureus, X1.1
Procedure: as §1

[9] = tested on: Klebsiella pneumoniae X68; assay: standard agar-dilution MIC assay; assay type: cell-based; conditions: Klebsiella pneumoniae, X68; agar-dilution; read-out: MIC
Procedure: as §1

[10] = tested on: Streptococcus Group D 9960; assay: standard agar-dilution MIC assay; assay type: cell-based; conditions: GROUPD9960, read-out: MIC
Procedure: as §1

[11] = tested on: Haemophilus influenzae C.L.; assay: standard agar-dilution MIC assay; assay type: cell-based; conditions: Haemophilus influenzae; agar-dilution; Ampicillin-sensitive strain; read-out: MIC
Procedure: as §1

[12] = tested on: Staphylococcus aureus V41; assay: standard agar-dilution MIC assay; assay type: cell-based; conditions: Staphylococcus aureus, V41
Procedure: as §1

[13] = tested on: Streptococcus pneumoniae Park I; assay: microbe, parasite or virus in culture; assay type: cell-based; conditions: Streptococcus pneumoniae
Procedure: as §1

[14] = tested on: Staphylococcus aureus S13E; assay: microbe, parasite or virus in culture; assay type: cell-based; conditions: Staphylococcus aureus, S13E
Procedure: as §1

[15] = tested on: Streptococcus pyogenes C203; assay: protection of mice experimentally infected with S. pyogenes C203; assay type: in vivo; conditions: mice, mg/kg × 2, doses given 1 and 4 hours postinfection, read-out: ED50
Procedure: The formula 1 compounds have shown in vivo antimicrobial activity against experimentally-induced infections in laboratory animals. When two doses of test compound were administered to mice experimentally infected with S. pyrogenes C203, the activity observed was measured as an ED50 value [effective dose in mg/kg to protect 50% of the test animals: see Warren Wick, et al., J. Bacteriol. 81, 233-235 (1961)].
^a mg/kg × 2; doses given 1 and 4 hours postinfection

[16] = tested on: Pasteurella multocida 60A; assay: broth-dilution microtiter MIC test; assay type: cell-based; conditions: Pasteurella multocida, 60A; broth-dilution microtiter; Avian isolate; read-out: MIC
Procedure: as §1

[17] = tested on: Pasteurella multocida 40G; assay: broth-dilution microtiter MIC test; assay type: cell-based; conditions: Pasteurella multocida, 40G; broth-dilution microtiter; read-out: MIC
Procedure: as §1

[18] = tested on: Pasteurella hemolytica 22C; assay: broth-dilution microtiter MIC test; assay type: cell-based; conditions: Pasteurella, 22C; broth-dilution microtiter; read-out: MIC
Procedure: as §1

[19] = tested on: Pasteurella hemolytica 23C; assay: broth-dilution microtiter MIC test; assay type: cell-based; conditions: Pasteurella, 23C; broth-dilution microtiter; read-out: MIC
Procedure: as §1

[20] = tested on: Pasteurella multocida 17E; assay: broth-dilution microtiter MIC test; assay type: cell-based; conditions: Pasteurella multocida, 17E; broth-dilution microtiter; Bovine isolate; read-out: MIC
Procedure: as §1

Mycoplasma synoviae 40A = assay: broth-dilution microtiter MIC test; assay type: cell-based; conditions: Mycoplasmopsis synoviae, 40A
Procedure: as §1

Streptococcus sp. 19F = assay: broth-dilution microtiter MIC test; assay type: cell-based; conditions: Streptococcus, SP.19F
Procedure: as §1

[21] = tested on: Mycoplasma gallisepticum 29C; assay: broth-dilution microtiter MIC test; assay type: cell-based; conditions: Mycoplasmoides gallisepticum, 29C
Procedure: as §1

[22] = tested on: Pasteurella multocida 22A; assay: broth-dilution microtiter MIC test; assay type: cell-based; conditions: Pasteurella multocida, 22A; broth-dilution microtiter; read-out: MIC
Procedure: as §1

[23] = tested on: Staphylococcus aureus 19C; assay: broth-dilution microtiter MIC test; assay type: cell-based; conditions: Staphylococcus aureus, 19C
Procedure: as §1

[24] = tested on: Mycoplasma gallisepticum 15E; assay: broth-dilution microtiter MIC test; assay type: cell-based; conditions: Mycoplasmoides gallisepticum, 15E
Procedure: as §1

[25] = tested on: Pasteurella multocida 68C; assay: broth-dilution microtiter MIC test; assay type: cell-based; conditions: Pasteurella multocida, 68C; broth-dilution microtiter; read-out: MIC
Procedure: as §1

[26] = tested on: Bordetella bronchiseptica; assay: broth-dilution microtiter MIC test; assay type: cell-based; conditions: Bordetella bronchiseptica; broth-dilution microtiter; read-out: MIC
Procedure: as §1

[27] = tested on: Mycoplasma gallisepticum 36H; assay: broth-dilution microtiter MIC test; assay type: cell-based; conditions: Mycoplasmoides gallisepticum, 36H
Procedure: as §1

[28] = tested on: Pasteurella hemolytica 41D; assay: broth-dilution microtiter MIC test; assay type: cell-based; conditions: Pasteurella, 41D; broth-dilution microtiter; read-out: MIC
Procedure: as §1

Mycoplasma hyorhinis 29E = assay: broth-dilution microtiter MIC test; assay type: cell-based; conditions: Mycoplasma, 29E
Procedure: as §1

[29] = broth-dilution microtiter, read-out: MIC

Compound	MIC [1]	MIC [2]	MIC [3]	MIC (Escherichia coli EC14)	MIC [6]	MIC [9]	MIC [10]	MIC [11]	MIC [14]	MIC [16]	MIC [17]	MIC [18]	MIC [19]	MIC [20]	MIC (Streptococcus sp. 19F)	MIC [21]	MIC [22]	MIC [25]	MIC [26]	MIC [28]	further results
CCC1OC(=O)CC(O)C(C)C(OC2OC(C)C(OC3CC(C)(O)C(O)C(C)O3)C(N(C)C)C2OC(C)=O)C(CC=O)CC(C)C(=O)C=CC(C)=CC1COC1OC(C)C(OC(=O)COc2ccccc2)C(OC(=O)COc2ccccc2)C1OC (centres unmarked) [Compound 15, 2'-O-Acetyl-3'",4'"-di-O-phenoxyacetyl-macrocin]	> 128 µg/mL	64 µg/mL (≈ 52.8 µM)	> 128 µg/mL	> 128 µg/mL	32 µg/mL (≈ 26.4 µM)	> 128 µg/mL	32 µg/mL (≈ 26.4 µM)	> 128 µg/mL	32 µg/mL (≈ 26.4 µM)	> 50 µg/mL	> 50 µg/mL	> 50 µg/mL	> 50 µg/mL	> 50 µg/mL	3.12 µg/mL (≈ 2.57 µM)	6.25 µg/mL (≈ 5.16 µM)	> 50 µg/mL	> 50 µg/mL	> 50 µg/mL	> 50 µg/mL	MIC [4]: 4 µg/mL (≈ 3.3 µM); MIC [5]: 32 µg/mL (≈ 26.4 µM); MIC [7]: 32 µg/mL (≈ 26.4 µM); MIC [8]: 4 µg/mL (≈ 3.3 µM); MIC [12]: 8 µg/mL (≈ 6.6 µM); MIC [13]: 0.5 µg/mL (≈ 0.412 µM); ED50 ([15]; C203, Oral): 87.1 mg/kg; ED50 ([15]; C203, sc, Subcutaneous): > 10 mg/kg; MIC (Mycoplasma synoviae 40A): 3.12 µg/mL (≈ 2.57 µM); MIC [23]: 25 µg/mL (≈ 20.6 µM); MIC [24]: 50 µg/mL (≈ 41.2 µM); MIC [27]: 50 µg/mL (≈ 41.2 µM); MIC (Mycoplasma hyorhinis 29E): 6.25 µg/mL (≈ 5.16 µM)
CCC1OC(=O)CC(O)C(C)C(OC2OC(C)C(OC3CC(C)(O)C(O)C(C)O3)C(N(C)C)C2OC(C)=O)C(CC=O)CC(C)C(=O)C=CC(C)=CC1COC1OC(C)C(OC(C)=O)C(OC(C)=O)C1OC (centres unmarked) [Compound 3, 2',3'",4'"-Tri-O-acetyl-macrocin]	> 128 µg/mL	4 µg/mL (≈ 3.89 µM)	2 µg/mL (≈ 1.95 µM)	> 128 µg/mL	8 µg/mL (≈ 7.78 µM)	> 128 µg/mL	4 µg/mL (≈ 3.89 µM)	> 128 µg/mL	4 µg/mL (≈ 3.89 µM)	> 50 µg/mL	> 50 µg/mL	> 50 µg/mL	> 50 µg/mL	> 50 µg/mL	3.12 µg/mL (≈ 3.03 µM)	3.12 µg/mL (≈ 3.03 µM)	> 50 µg/mL	> 50 µg/mL	> 50 µg/mL	> 50 µg/mL	MIC ([4]; agar-dilution, read-out: MIC): 1 µg/mL (≈ 0.973 µM); MIC ([5]; agar-dilution, read-out: MIC): 2 µg/mL (≈ 1.95 µM); MIC ([7]; agar-dilution, read-out: MIC): 2 µg/mL (≈ 1.95 µM); MIC ([8]; agar-dilution, read-out: MIC): 2 µg/mL (≈ 1.95 µM); MIC ([12]; agar-dilution, Penicillin-resistant strain, read-out: MIC): 2 µg/mL (≈ 1.95 µM); MIC ([13]; agar-dilution, read-out: MIC): 1 µg/mL (≈ 0.973 µM); MIC (Mycoplasma synoviae 40A; [29]): 12.5 µg/mL (≈ 12.2 µM); MIC [23, 29]: 6.25 µg/mL (≈ 6.08 µM); MIC [24, 29]: > 50 µg/mL; MIC [27, 29]: > 50 µg/mL; MIC (Mycoplasma hyorhinis 29E): 25 µg/mL (≈ 24.3 µM)
CCC1OC(=O)CC(O)C(C)C(OC2OC(C)C(OC3CC(C)(O)C(O)C(C)O3)C(N(C)C)C2OC(C)=O)C(CC=O)CC(C)C(=O)C=CC(C)=CC1COC1OC(C)C(OC(C)=O)C(OC(=O)COc2ccccc2)C1OC (centres unmarked) [Compound 19, 2',4'"-Di-O-acetyl-3'"-O-phenoxyacetyl-macrocin]	> 128 µg/mL	2 µg/mL (≈ 1.79 µM)	> 128 µg/mL	> 128 µg/mL	2 µg/mL (≈ 1.79 µM)	> 128 µg/mL	2 µg/mL (≈ 1.79 µM)	> 128 µg/mL	1 µg/mL (≈ 0.893 µM)	> 50 µg/mL	> 50 µg/mL	> 50 µg/mL	> 50 µg/mL	> 50 µg/mL	1.56 µg/mL (≈ 1.39 µM)	0.78 µg/mL (≈ 0.696 µM)	> 50 µg/mL	> 50 µg/mL	> 50 µg/mL	> 50 µg/mL	MIC [4]: 0.5 µg/mL (≈ 0.446 µM); MIC [5]: 1 µg/mL (≈ 0.893 µM); MIC [7]: 1 µg/mL (≈ 0.893 µM); MIC [8]: 1 µg/mL (≈ 0.893 µM); MIC [12]: 1 µg/mL (≈ 0.893 µM); MIC [13]: 0.25 µg/mL (≈ 0.223 µM); MIC (Mycoplasma synoviae 40A): 0.78 µg/mL (≈ 0.696 µM); MIC [23]: 6.25 µg/mL (≈ 5.58 µM); MIC [24]: 25 µg/mL (≈ 22.3 µM); MIC [27]: 50 µg/mL (≈ 44.6 µM); MIC (Mycoplasma hyorhinis 29E): 3.12 µg/mL (≈ 2.78 µM)
